According to patent publication US20260224475A1, “MULTI-COMPONENT INTRAVAGINAL RING” (priority 2023, published 2026):
Where two headings read alike, the source gives them in different places.

Experiments:
N. gonorrhoeae = test: Minimal cidal concentration (MCC); type: cell-based
human sperm [1] = test: Sperm-Cervical Mucus Penetration Test (SMPT) in methylcellulose; type: cell-based; details: Homo sapiens, Sperm
HSV-2 G = test: HSV-2 plaque reduction assay; type: cell-based; details: Human alphaherpesvirus 2, single API, 30 min pre-incubation with HSV-2 G in saline, read-out: EC50 (95% confidence interval)
Description: The HSV-2 plaque reduction assay was performed to test the anti-HSV-2 activity of ZA, CS and LA. […] Virus controls containing HSV-2 in saline were incubated under the same conditions. After incubation all dilutions and controls were diluted 1/10 in DMEM and tittered using the plaque assay. FIG. 12 and Table 10 show the results. […] The data represented the average of two independent experiments. In Table 10, the molar ratio of CS:LA:ZA in ZS-CA-LA is 1:20:100.

HIV-1BaL = test: MAGI assay, anti-HIV-1BaL activity in TZMbl cells; type: cell-based; details: TZM-bl, read-out: EC50 (95% confidence interval)
Description: MAGI assay was performed to test anti-HIV-1BaL activity. […] Virus controls containing HIV-1BaL in saline were incubated under the same conditions. Following incubation, API-HIV-1BaL mixture was diluted 10-fold and added to TZMbl cells. Following 72-hour incubation, the cells were washed and stained with X-gal and fixed. […] Infected cells were counted using CTL instrument.

G. vaginalis = test: Minimal cidal concentration (MCC); type: cell-based; details: 30 minutes exposure; >3 log decrease in CFU considered cidal
human sperm [2] = test: Sperm motility assay; type: cell-based; details: for Average Motility Reduction: average of nine 3-API checkerboard combinations containing the named API at this dose; for EC50 / EC90: Homo sapiens, Sperm
Description: Fresh human sperm samples were obtained the day of the experiment. 100 mM stock solutions of each API in saline were prepared in advance. Immediately prior to the experiment, solutions of each API concentration to be tested were prepared via dilution with saline. These include solutions of multiple APIs added together.
The effect of each API on sperm motility and viability was determined using human donors, adding 200 μL of API's diluted in sterile saline to 50 μL of fresh semen. For motility assessments, the incubation mixture was incubated for 5 minutes and then 100 sperm were counted under the microscope by two andrology-trained researchers and classified as either non-motile or motile. If motile, the sperm were further classified according to the nature of their motility—from barely twitching with no forward progression to progressively motile. Each experiment was repeated at least three times on different days using different donors to account for natural variations in sperm properties.
The % motility for each experimental condition was calculated by normalizing the fraction of motile sperm in the experimental groups to the fraction of motile sperm in the saline control treated group, setting 100% to the average fraction of motile sperm from control experiments. For example, the % motility at concentration c would be:
Once % motility data was obtained, the synergy was measured with Compusyn software. See Chou et al., CompuSyn for drug combinations: PC software and user's guide: a computer program for quantitation of synergism and antagonism in drug combinations, and the determination of IC50. ED50 and LD50 values, which is incorporated herein by reference in its entirety. Motility data for individual API concentration as well as all double and triple API solutions was entered into the program and analyzed according to the Chou-Talalay Median Effect Principle.
Next, the synergy between each of the APIs was tested to determine if there were any synergistic effects between compounds which would allow for reduced dosages. Each of the three possible two-compound combinations were tested, followed by the combination of all three APIs. […] Synergy was calculated with Compusyn using the Chou-Talalay Median Effect approach and represented as a CI (Combination Index) value. […] The smaller the CI value for a combination, the greater the degree of synergy.
After the two-API combinations were complete, the full three-way synergy was tested using a 3×3×3 checkerboard style assay to test all 27 permutations of three chosen concentrations for each of the three APIs.
From the resulting data, the estimated effects of each of the individual API were isolated by averaging % reduction in motility and the CI values for each of the API concentrations tested. With this 3×3×3 checkerboard assay, each single concentration was tested against nine permutations of the other two APIs, meaning that each cell in Table 4 represents the average of the nine combinations involving the specified API concentration.
Synergy was calculated utilizing the Chou-Talalay median effect principle and Compusyn software which quantifies synergy as a combination index (CI) for each combination. A CI<1 signifies synergy, a CI>1 signifies antagonism and a CI=1 signifies a purely additive effect.

lactobacillus = test: Non-cidal concentrations in lactobacillus (MCC 30 min); type: cell-based
Ectocervical explants = tested on: Ectocervical explants
Description: Kruskal-Wallis test with Dunn's multiple comparison) (FIG. 22).
In FIG. 23, ectocervical explants were incubated with the selected concentrations of the APIs for 24 hr in the presence or absence of 5% VF. Explants were fixed, paraffin embedded, sectioned and stained with H&E.
Ectocervical explants were exposed to the APIs 24 hr in the presence or absence of 5% VF. Supernatants were collected and analyzed for pro-inflammatory cytokines.

VEC-100 tissue [3] = tested on: VEC-100 tissue
Description: VEC-100 tissues were incubated with APIs for 24 hr. Tissue viability was analyzed by MTT and LDH assay and TEER measurements were recorded.

VEC-100 tissue [4] = test: VEC-100 tissue, repeated exposure (1 hr daily for 5 days; viability, TEER); type: cell-based
C. trachomatis = test: Bactericidal activity against C. trachomatis (inclusion count in HeLa cells); type: cell-based
Description: C. trachomatis was incubated with actives ±2% VF and 20% SF for 2 hours at room temperature. The mixtures were serially diluted 1/10 in SPG solution, applied on HeLa cells in triplicate. Images were acquired using the Cytation-5 instrument and the inclusion count was analyzed using the Gen5 software in the Cytation-5. Control conditions included HeLa cells challenged with C. trachomatis in the absence of the actives. (FIG. 15).

[5] = rat, in vivo, 10 days

CC(O)C(=O)O (racemic) [LA, lactic acid]
MCC 10% AB Serum (N. gonorrhoeae; 10% AB serum): 111 mM | MCC 30% AB Serum (N. gonorrhoeae; 30% AB serum): 111 mM | MCC (N. gonorrhoeae; 30 minutes exposure, >3 log decrease in CFU considered cidal): 111 mM | MCC No Serum (N. gonorrhoeae; no serum): 111 mM | EC90 (human sperm [1]; 0.5 h, single API, 1% methylcellulose, 30 minutes, read-out: Inhibition of Sperm Mucus Penetration EC90 [95% CI] (Migration of vanguard sperm in methyl cellulose spiked with API)): 5 mM | EC90 (human sperm [1]; Table 16, concentration of the named API in the CS + ZL + LA combination (cf. Table 7), read-out: Anti-Sperm concentrations Sperm-mucus penetration (EC90)): 1.5 mM | EC50 (HSV-2 G): 0.16 mM | EC50 (HIV-1BaL): 2.5 mM | MCC (G. vaginalis): 111 mM | Average Motility Reduction (human sperm [2]; Dose 1 (CS 2.95, ZA 4.75, LA 10.26 mM)): 54.75% | Average Motility Reduction (human sperm [2]; Dose 2 (CS 3.94, ZA 6.34, LA 13.70 mM)): 70.74% | Average Motility Reduction (human sperm [2]; Dose 3 (CS 5.90, ZA 9.51, LA 20.54 mM)): 91.84% | EC50 (human sperm [2]; 5 min, single API (CS/ZA/LA study), saline, 5 min with fresh semen, % motility vs saline control): 20.5 mM | EC90 (human sperm [2]; 5 min, single API (CS/ZA/LA study), saline, 5 min with fresh semen, % motility vs saline control, read-out: EC90): 28.7 mM | EC90 (human sperm [2]; Table 16, concentration of the named API in the CS + ZL + LA combination (cf. Table 7), read-out: Anti-Sperm concentrations Total motility (EC90)): 21 mM | EC50 (human sperm [2]; single API (CS/ZL/LA study)): 21 mM | EC90 (human sperm [2]; single API (CS/ZL/LA study), read-out: EC90): 29 mM | EC90 (human sperm [2]; single API, read-out: Reduction of Sperm Motility EC90 [95% CI] (concentration to inhibit total sperm motility)): 29 mM | MIC (concentration to inhibit progressive sperm motility) (human sperm [2]; single API): 20 mM | Non-cidal concentrations in lactobacillus MCC 30 min (lactobacillus): 222 mM | Ectocervix: single exposure (MTT, Histology, CC) 24 h, 5% VF (Ectocervical explants; 111 mM): No Tox | Ectocervix: single exposure (MTT, Histology, CC) 24 h, No VF (Ectocervical explants; 111 mM): No Tox | Ectocervix: single exposure (MTT, Histology, CC) 24 h, 5% VF (Ectocervical explants; 222 mM): No Tox | Ectocervix: single exposure (MTT, Histology, CC) 24 h, No VF (Ectocervical explants; 222 mM): No Tox | Non-toxic concentrations in ectocervix MTT and histology 24 hr (Ectocervical explants; single treatment): 222 mM | concentration up to which exposure alone did not induce toxicity (VEC-100 tissue [3]; single active, 24 h single exposure, summary of ectocervix and VEC-100 findings): up to 222 mM | Non-toxic concentrations in VEC-100 model TEER and LDH 24 h (VEC-100 tissue [3]; single treatment): 222 mM | VEC-100 single exposure (MTT, TEER and LDH) day 1-5 24 h No VF (VEC-100 tissue [4]; 22 mM): No Tox | Non-toxic concentrations in VEC-100 model TEER and LDH 5 daily exposures (VEC-100 tissue [4]; multiple treatments): 22 mM | anti-C. trachomatis activity (in words) (C. trachomatis; LA concentrations lower than 80 mM): no activity was observed | inhibition of C. trachomatis infection (in words) (C. trachomatis; absence or presence of 2% VF and 20% SF, 2 hours at room temperature, LA 80 mM): significantly inhibited infection | Non-toxic concentrations based on rat vaginal irritation study 10 days exposure [5]: 200 mM
